US9592234B2, “Methods and compositions for stimulating neurogenesis and inhibiting neuronal degeneration using isothiazolopyrimidinones” (Neuronascent, Inc., priority 2007, dated 2017)

How the values were obtained:
[1] = test system: human neuronal progenitors cells; test: in vitro neurogenesis test; assay type: cell-based; conditions: MAP-2 staining on day 11; differentiation media; vehicle 0.2% DMSO in DMEM/F12
Protocol: The in vitro neurogenesis test was performed using human neuronal progenitors cells. By way of background, the human neuronal progenitor cells can be cultured in media and have the potential to produce mature functional neurons. The neurogenesis factor in the culture media can promote the number of the progenitor cells which differentiate into neurons. Indeed, it is a widely accepted in vitro model to test a chemical's neurogenetic property.
Cells were obtained as human neuronal progenitors from a commercial source and were grown for up to three passages or at any time differentiated to potentially produce mature functional neurons in culture. Following two passages to expand the cells, progenitors were seeded into multi-well microplates and the media were changed to differentiation media (minus serum and mitogen). Within 2 hrs of this media change, a vehicle, positive control or test compound were added to each well. Also, they were added with every further media change (50% volume change every other day). Control wells contained cells and vehicle (0.2% DMSO in DMEM/F12). […]
The cells were stained using MAP-2, a neuronal marker, on day 11. Then, each test compound was assessed for the ability to promote an increase in neuron number and compared with the positive control, leukemia inhibitory factor (LIF).

[2] = test system: Human neurons; test: inhibition of neurodegeneration by hydrogen peroxide (Alamar Blue respiration); assay type: cell-based; conditions: hydrogen peroxide 50 uM for up to 6 hrs, FIG. 1
Protocol: Dysfunctional neurons were initiated using any of the above agents or using hydrogen peroxide at 1-100 μM concentration. Using a dye that measures metabolic activity of the cells, such as MTT or ALAMARBLUE®, we determined the reduction of respiratory capacity of the cells, which indicated neuron dysfunction. The ability of neurogenic agents to inhibit hydrogen peroxide-induced reduction in cellular respiration was used as a measure of inhibition of neuronal dysfunction, a potential step that lead to degeneration.
Certain compounds were further analyzed to determine their ability to inhibit neurodegeneration by hydrogen peroxide. Human neurons are treated with hydrogen peroxide (50 uM) for up to 6 hrs and then neuronal loss is measured using Alamar Blue respiration.

SMILES | Effects of compounds on the increase in the neuron numbers compared with the vehicle control, % of Control [1] | loss of respiration (neuronal loss) when added along with hydrogen peroxide [2]
COc1ccc(-c2nsc3c(=O)n(CCCN4CCOCC4)cnc23)cc1 [3-(4-Methoxyphenyl)-6-[3-(4-morpholinyl)propyl]-isothiazolo[4,5-d]pyrimidin-7-(6H)-one] | 115% | 
CCN1CCCC1Cn1cnc2c(-c3ccc(OC)cc3)nsc2c1=O (stereo not shown) [3-(4-Methoxyphenyl)-6-[(1-ethylpyrrolidin-2-yl)methyl]-isothiazolo[4,5-d]pyrimidin-7(6H)-one] | 107% | 
CCN1CCCC1Cn1cnc2c(-c3ccc(OC)cc3)nsc2c1=O (stereo not shown) [NNI-A, 6-((1-ethylpyrrolidin-2-yl)methyl)-3-(4-methoxyphenyl)isothiazolo[4,5-d]pyrimidin-7(6H)-one] |  | less loss of respiration
CCN1CCCC1Cn1cnc2c(-c3ccc(F)cc3)nsc2c1=O (stereo not shown) [NNI-B, 6-((1-ethylpyrrolidin-2-yl)methyl)-3-(4-fluorophenyl)isothiazolo[4,5-d]pyrimidin-7(6H)-one] |  | less loss of respiration
